Literature values as cited in article PMC3600580 (Experimental neurology, 2012).

System: offspring
Settings: developmental exposure, ref Kuriyama, et al., 2005, Rice, 2007, Suvorov, 2009

| Structure (SMILES) | activity phenotype of offspring |
| --- | --- |
| Brc1ccc(Oc2ccc(Br)cc2Br)c(Br)c1 [BDE-47, 2,2′,4,4′-TetraBDE] | hyperactive |
| Brc1c(Br)c(Br)c(Oc2c(Br)c(Br)c(Br)c(Br)c2Br)c(Br)c1Br [compound 209] | hyperactive |
